“Also recorded” adds a separate entry of the source. Marks after values point to notes of the source that are not given here.
How the values were obtained:
[1] = tested on: Osteoblast-like rat osteosarcoma cells (ROS17/2.8); assay: Determination of osteocalcin synthesis (radio-immunoassay of OC released into the medium); assay type: cell-based; settings: for order of potency relative to 1,25(OH)2D3 (induction of OC synthesis): 1,25(OH)2D3 = 1.0; for effectiveness on OC synthesis compared with the steroid hormone 1,25(OH)2D3 / stimulation of OC synthesis: 72 hours incubation
Protocol: Cells were grown by 72 hours in the absence (control) or presence of the indicated concentrations of 1α, 25-dihydroxy-vitamin D3[1,25(OH)2D3], EHDP, APD, OPD or NH2-OPD. Then osteocalcin (OC) released into the medium was quantitated as described in Example 4. Data are the average±SD of 3 independent experiments performed by triplicate.
(§1) Osteoblast-like rat osteosarcoma cells (ROS17/2.8) were cultured as monolayers at 37° C. in Dulbecco's modified Eagle's medium (DME) containing 10% fetal bovine serum under humidified air (5.5% CO2). After 48 hours, medium was changed to DME containing 1% fetal bovine serum. Unless otherwise stated, cells were allowed to grow until confluence (4-5 days after plating).
Osteoblasts grown by 48 hours in multiwells were changed to Dulbecco's modified Eagle's medium containing 1% fetal bovine serum plus the indicated concentration of BP, 10^−8 M 1,25(OH)2D3 (positive control), or vehicle alone, and then allowed to grow for an additional period of 72 hours. The medium from each well was collected and stored frozen at −80° C. until use for osteocalcin measurements. Osteocalcin (OC) was quantitatively measured by radio-immunoassay using a commercially avalaible kit (Osteocalcin DSL-6900, Diagnostic Systems Laboratories Inc., Webster, Tex., USA) according to manufacturer's instructions. Osteocalcin values were corrected for total cellular protein content.

[2] = tested on: Osteoblast-like rat osteosarcoma cells (ROS17/2.8); assay: Intracellular calcium measurements (Fura-2 fluorimetry), with or without VDCC blockers, PLC inhibitors or thapsigargin; assay type: cell-based; set-up: Δ[Ca^2+]i: unit not given here; settings: for Ca^2+ response after depletion of Ca^2+ stores with thapsigargin: 1 μM thapsigargin, bisphosphonate 10 nM; for % Inhibition (decrease in Δ[Ca^2+]i) / [Ca^2+]i / Δ[Ca^2+]i: 10^−8 M; for rapid (1 min) increase in cytosolic Ca^2+ after pretreatment with PLC inhibitors: U73122 (2 μM) or neomycin (0.5 mM); for rapid (1 min) increase in cytosolic Ca^2+ after pretreatment with U73343: U73343, analogue of U73122 devoid of effect on PLC, not shown; for reduction of the induced [Ca^2+]i increase by VDCC blockers: pretreatment with nifedipine (2 μM) or verapamil (5 μM)
Protocol: as §1
Intracellular Ca^2+ changes were monitored by using the Ca^2+-sensitive fluorescent dye Fura-2 as previously described (Vasquez et al., 1998, J. Biol. Chem. 273, 33954-33960). Cell dye loading was achieved by incubating the cells in buffer A containing (in mM): 138 NaCl, 5 KCl, 1 MgCl2, 5 glucose, 10 HEPES (pH 7.4), 1.5 CaCl2, plus 0.1% bovine serumalbumin (BSA), 2 μM of the pentaacetoxymethylester derivative (membrane permeable) Fura-2/AM and 0.012% pluronic F-127, in the dark during 40 min at room temperature (20-25° C.) in order to minimize dye compartmentalization. Unloaded dye was washed out and cells were stored in buffer B (buffer A without BSA, Fura-2/AM and pluronic F-127) in the dark (room temperature) by at least 30 min prior to use, to allow for complete intracellular dye deesterification. For fluorescence measurements the coverslips containing dye-loaded cells were mounted into quartz cuvettes and introduced into the thermostatized (37° C.) sample compartment of a SLM Aminco 8100 spectrofluorimeter. Fura-2 intracellular fluorescence intensity was monitored at an emission wavelength of 510 nm (8 nm bandpass) by alternating with an electronically controlled chopper (300 Hz) the excitation wavelength between 340 and 390 nm employing a dual excitation monochromator at 4 nm bandpass. Signals from short and long wavelength were ratioed (R=340/390) thus making the measurement independent of variations in cellular dye content, dye leakage or photobleaching. Calibration of Fura-2 signal to calculate [Ca^2+]i values was performed for each coverslip as follows: maximal (Rmax) and minimal (Rmin) intracellular dye fluorescence signals were determined by adding 5 μM ionomycin plus 3 mM Ca^2+ and 10 mM EGTA (pH 7.0) plus 10 mM Tris-base (pH 9.0), respectively.
[Ca^2+]i=Kd(R−Rmin)/(Rmax−R)×β
where R is the ratio of Fura-2 fluorescence at the selected wavelengths, Rmax and Rmin represent ratios from Ca^2+ saturated and Ca^2+ free intracellular dye, respectively, and β is the ratio between the specific fluorescence of the Ca^2+ free and Ca^2+ bound forms of the dye at the longer wavelength (Sf2/Sb2).
Fura-2 loaded osteoblasts were treated with vehicle (buffered saline solution, Basal), OPD (10−8 M) or NH2-OPD (10^−8 M) and intracellular Ca^2+ concentration ([Ca^2+]i) was measured as described. Given are [Ca^2+]i values corresponding to the plateau phase (5 min after BP exposure; see FIG. 3) of the BP-induced Ca^2+ response. When used, both nifedipine (2 μM) and verapamil (5 μM) were added 3 min before stimulation. Data are the average of 5 independent [Ca^2−]i recordings±sd. p values (*p<0.001; **p<0.01) are given for significant differences respect to basal. Percent (%) inhibition refers to the decrease in Δ[Ca^2+]i.
Fura-2 loaded cells were treated with vehicle (buffered saline solution, Basal), OPD (10^−8 M) or NH2-OPD (10^−8 M) and intracellular Ca^2+ concentration ([Ca^2+]i) was measured as described. Unless otherwise indicated, [Ca^2+]i stimulation was evaluated at the plateau phase of the BP-induced response (see FIG. 3). When used, the PLC inhibitors U73122 (2 μM) or neomycin (0.5 mM, data in parentheses) were added into the measurement cuvette 3 min before stimulation. In the PLC-inhibition assay [Ca^2+]i values measured at 1- and 5-min. after stimulation are given. Results are expressed as percent of control (100%) to allow comparison among different assay conditions, and are the average of 3 independent experiments±sd. *p<0.001; **p<0.01. Percent (%) inhibition refers to the decrease in Δ[Ca^2+]i.

bone resorption = settings: Van Beek E. et al., 1996, J. Bone Miner. Res. 11, 1492-1497; cited from earlier work
[3] = U73122 (2 μM), 1 min after stimulation
[4] = U73122 (2 μM), 5 min after stimulation
[5] = neomycin (0.5 mM, data in parentheses), 1 min
[6] = neomycin (0.5 mM, data in parentheses), 1 min after stimulation
[7] = neomycin (0.5 mM, data in parentheses), 5 min
[8] = neomycin (0.5 mM, data in parentheses), 5 min after stimulation
[9] = plateau phase (5 min), nifedipine (2 μM) pretreatment
[10] = plateau phase (5 min), nifedipine (2 μM) pretreatment 3 min before
[11] = plateau phase (5 min), no pretreatment, basal 135 ± 6
[12] = plateau phase (5 min), no pretreatment, difference to basal
[13] = plateau phase (5 min), verapamil (5 μM) pretreatment
[14] = plateau phase (5 min), verapamil (5 μM) pretreatment 3 min before
[15] = plateau phase, no PLC inhibitor
[16] = plateau phase, no PLC inhibitor, difference to control (100%)

Compound | order of potency relative to 1,25(OH)2D3 (induction of OC synthesis) ([1]; 10^−8 M, 72 hours) | time-to-peak of cytosolic Ca^2+ change ([2]; 10 nM) [s] | effectiveness on OC synthesis compared with the steroid hormone 1,25(OH)2D3 [1] | maximal change in cytosolic Ca^2+ relative to 1,25(OH)2D3 ([2]; 10 nM) | stimulation of OC synthesis [1] | Ca^2+ response after depletion of Ca^2+ stores with thapsigargin [2] | % Inhibition (decrease in Δ[Ca^2+]i) ([2]; U73122 (2 μM), 1 min) | [Ca^2+]i [2, 3] | % Inhibition (decrease in Δ[Ca^2+]i) ([2]; U73122 (2 μM), 5 min) | [Ca^2+]i [2, 4] | % Inhibition (decrease in Δ[Ca^2+]i) [2, 5] | [Ca^2+]i [2, 6] | % Inhibition (decrease in Δ[Ca^2+]i) [2, 7] | [Ca^2+]i [2, 8] | % Inhibition (decrease in Δ[Ca^2+]i) [2, 9] [%] | Δ[Ca^2+]i [2, 9] | [Ca^2+]i [2, 10] | [Ca^2+]i [2, 11] | Δ[Ca^2+]i [2, 12] | % Inhibition (decrease in Δ[Ca^2+]i) [2, 13] [%] | other results
C=C1/C(=C\C=C2/CCC[C@]3(C)[C@@H]([C@H](C)CCCC(C)(C)O)CC[C@@H]23)C[C@@H](O)C[C@@H]1O [1,25(OH)2D3, 1α, 25-dihydroxy-vitamin D3] | 1.0 | 90 |  |  |  |  |  |  |  |  |  |  |  |  |  |  |  |  |  |  | release of OC into the culture medium increased respect to control, untreated cells ([1]; 10^−8 M, 72 hours): 100%
NCCC(O)(P(=O)(O)O)P(=O)(O)O [APD, pamidronate] | 1.1 | 80 | more effective than the steroid hormone | less effective than the steroid |  |  |  |  |  |  |  |  |  |  |  |  |  |  |  |  | 
CC(O)(P(=O)(O)O)P(=O)(O)O [EHDP, etidronate] | 0.85 | 120 |  | less effective than the steroid |  |  |  |  |  |  |  |  |  |  |  |  |  |  |  |  | rate of Ca^2+ elevation, initial phase (0-2 min) ([2]; 10 nM): slowest rate of Ca^2+ elevation
CN(C)CCC(N)(P(=O)(O)O)P(=O)(O)O [NH2-OPD, 1-amino-3-(N,N-dimethylamino)-propylidene-1,1-bisphosphonic acid] | 0.85 | 80 | lower than for the secosteroid | less effective than the steroid | markedly stimulated OC synthesis in a dose-dependent fashion | completely blocked | 100% | 101 ± 5% of control (100%) | 100(100) % | 100 ± 11% of control (100%) | 99% | 99 ± 1% of control (100%) | 100(100) % | 100 ± 5% of control (100%) | 90 | 2 | 137 ± 6 nM | 150 ± 3** nM | 15 | 100 | antiresorptive activity (bone resorption): complete loss of antiresorptive activity; also recorded: absolutely devoid of antiresorptive properties; [Ca^2+]i [2, 14]: 133 ± 7 nM; [Ca^2+]i [2, 15]: 137 ± 3** percent of control (100%); Δ[Ca^2+]i [2, 16]: 37; rapid increase in [Ca^2+]i (time of onset) ([2]; Fura-2 loaded cells): 60 s; rapid (1 min) increase in cytosolic Ca^2+ after pretreatment with PLC inhibitors [2]: totally blocked; rapid (1 min) increase in cytosolic Ca^2+ after pretreatment with U73343 [2]: not by U73343; reduction of the induced [Ca^2+]i increase by VDCC blockers [2]: almost completely abolished; return of [Ca^2+]i to near basal levels after peak ([2]; transient Ca^2+ rise, down-turn phase after peak): 1 to 2 min
CN(C)CCC(O)(P(=O)(O)O)P(=O)(O)O [OPD, olpadronate] | 1.9 | 60 | more effective than the steroid hormone | equipotent to the steroid | markedly stimulated OC synthesis in a dose-dependent fashion | completely blocked | 100(100) % | 105 ± 3% of control (100%) | 100(100) % | 100 ± 5% of control (100%) | 100(100) % | 98 ± 2% of control (100%) | 100(100) % | 100 ± 8% of control (100%) | 70 | 21 | 156 ± 8** nM | 205 ± 10* nM | 70 | 85 | Δ[Ca^2+]i [2, 13]: 11; [Ca^2+]i [2, 14]: 146 ± 5 nM; [Ca^2+]i [2, 15]: 164 ± 9* percent of control (100%); Δ[Ca^2+]i [2, 16]: 64; rapid (1 min) increase in cytosolic Ca^2+ after pretreatment with PLC inhibitors [2]: totally blocked; rapid (1 min) increase in cytosolic Ca^2+ after pretreatment with U73343 [2]: not by U73343; reduction of the induced [Ca^2+]i increase by VDCC blockers [2]: 70%
